Assay results from ChEMBL document CHEMBL5316358, “Structure-Activity Relationships of Ligand Binding to Oxysterol-Binding Protein (OSBP) and OSBP-Related Protein 4” (J Med Chem, 2023).

Tests used:
[1] = biological target: T1, Oxysterol-binding protein 2 (Homo sapiens, UniProt Q969R2); experiment: Displacement of [3H]-25-OHC from human ORP4 overexpressed in HEK293T cell lysate assessed as inhibition constant by competitive binding assay; assay type: subcellular
T1 sequence (Q969R2 whole entry): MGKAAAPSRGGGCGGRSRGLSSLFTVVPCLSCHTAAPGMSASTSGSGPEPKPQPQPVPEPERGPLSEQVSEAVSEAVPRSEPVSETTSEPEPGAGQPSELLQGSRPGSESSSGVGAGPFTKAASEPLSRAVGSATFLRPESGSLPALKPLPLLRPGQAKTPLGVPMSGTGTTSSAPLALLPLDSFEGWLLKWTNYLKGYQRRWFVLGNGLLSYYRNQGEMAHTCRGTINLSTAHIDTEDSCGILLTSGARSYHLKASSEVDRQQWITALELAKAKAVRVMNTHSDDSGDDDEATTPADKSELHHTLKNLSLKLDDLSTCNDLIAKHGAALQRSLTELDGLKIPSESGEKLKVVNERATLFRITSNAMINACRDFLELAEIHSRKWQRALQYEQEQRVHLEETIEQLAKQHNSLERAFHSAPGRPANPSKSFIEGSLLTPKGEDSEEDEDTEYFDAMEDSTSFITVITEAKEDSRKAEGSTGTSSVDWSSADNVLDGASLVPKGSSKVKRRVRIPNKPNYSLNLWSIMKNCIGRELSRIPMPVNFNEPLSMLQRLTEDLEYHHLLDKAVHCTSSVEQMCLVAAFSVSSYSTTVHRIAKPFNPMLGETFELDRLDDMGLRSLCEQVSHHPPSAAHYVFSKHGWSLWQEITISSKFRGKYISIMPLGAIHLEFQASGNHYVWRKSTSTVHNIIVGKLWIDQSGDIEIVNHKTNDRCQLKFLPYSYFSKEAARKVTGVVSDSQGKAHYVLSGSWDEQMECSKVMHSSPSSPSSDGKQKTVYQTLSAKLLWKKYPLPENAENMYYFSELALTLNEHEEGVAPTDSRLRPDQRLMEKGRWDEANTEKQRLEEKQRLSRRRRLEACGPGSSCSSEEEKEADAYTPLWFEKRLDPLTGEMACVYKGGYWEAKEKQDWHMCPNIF

[2] = biological target: T2, Oxysterol-binding protein 1 (Homo sapiens, UniProt P22059); experiment: Binding affinity to human OSBP
T2 sequence (P22059 whole entry): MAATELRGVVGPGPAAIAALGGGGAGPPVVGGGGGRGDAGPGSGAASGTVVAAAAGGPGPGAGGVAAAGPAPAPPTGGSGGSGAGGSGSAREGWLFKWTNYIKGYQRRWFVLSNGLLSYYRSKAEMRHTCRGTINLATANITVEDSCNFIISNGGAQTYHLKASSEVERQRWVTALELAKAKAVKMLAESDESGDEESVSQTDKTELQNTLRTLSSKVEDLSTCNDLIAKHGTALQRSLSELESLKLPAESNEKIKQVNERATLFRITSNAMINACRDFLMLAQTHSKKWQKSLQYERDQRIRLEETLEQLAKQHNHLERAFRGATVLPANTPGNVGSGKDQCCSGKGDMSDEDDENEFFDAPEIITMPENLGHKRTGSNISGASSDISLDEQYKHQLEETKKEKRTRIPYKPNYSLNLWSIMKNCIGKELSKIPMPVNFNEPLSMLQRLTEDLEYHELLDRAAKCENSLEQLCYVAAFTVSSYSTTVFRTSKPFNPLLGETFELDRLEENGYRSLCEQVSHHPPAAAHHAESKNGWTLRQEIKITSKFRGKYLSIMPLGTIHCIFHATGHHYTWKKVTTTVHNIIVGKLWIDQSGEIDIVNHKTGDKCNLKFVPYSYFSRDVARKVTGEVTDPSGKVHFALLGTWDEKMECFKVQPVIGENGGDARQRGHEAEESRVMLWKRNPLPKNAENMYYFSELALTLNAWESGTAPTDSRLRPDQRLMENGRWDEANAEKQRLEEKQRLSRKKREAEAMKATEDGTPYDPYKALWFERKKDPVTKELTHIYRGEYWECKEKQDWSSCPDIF

[3] = biological target: T2, Oxysterol-binding protein 1; experiment: Displacement of [3H]-25-OHC from human OSBP overexpressed in HEK293T cell lysate assessed as inhibition constant by competitive binding assay
[4] = biological target: T2, Oxysterol-binding protein 1; experiment: Displacement of [3H]-25-OHC from human OSBP overexpressed in HEK293T cell lysate assessed as inhibition constant; assay type: subcellular
[5] = biological target: T1, Oxysterol-binding protein 2; experiment: Displacement of [3H]-25-OHC from human ORP4 overexpressed in HEK293T cell lysate assessed as inhibition constant; assay type: subcellular

SMILES	Ki [1] [nM]	Ki [3] [nM]	also measured
CC(C)CC[C@H](O)[C@@H](C)[C@H]1CC[C@H]2[C@@H]3CC=C4C[C@@H](O)CC[C@]4(C)[C@H]3CC[C@]12C	> 3000	–	–
C[C@H](CCCC(C)(C)O)[C@H]1CC[C@H]2[C@@H]3CC=C4C[C@@H](O)CC[C@]4(C)[C@H]3CC[C@]12C	–	–	Kd [2]: 22 nM
CC(C)[C@@H](O)CC[C@@H](C)[C@H]1CC[C@H]2[C@@H]3CC=C4C[C@@H](O)CC[C@]4(C)[C@H]3CC[C@]12C	400	–	–
CC(C)CCC[C@](C)(O)[C@H]1CC[C@H]2[C@@H]3CC=C4C[C@@H](O)CC[C@]4(C)[C@H]3CC[C@@]21C	320	130	–
C[C@@H](CO)CCC[C@@H](C)[C@H]1CC[C@H]2[C@@H]3CC=C4C[C@@H](O)CC[C@]4(C)[C@H]3CC[C@]12C	> 1000	–	–
CCN(CC)CCO[C@H]1CC[C@@]2(C)C(=CC[C@@H]3[C@@H]2CC[C@]2(C)C(=O)CC[C@@H]32)C1	> 50000	–	–
COc1ccc(C(=O)O[C@H]2[C@H](O[C@@H]3[C@@H](OC(C)=O)[C@H](O[C@H]4C[C@H]5[C@@H]6CC=C7C[C@@H](O)CC[C@]7(C)[C@H]6CC[C@]5(C)[C@@]4(O)[C@H](C)C(=O)CCC(C)C)OC[C@@H]3O)OC[C@@H](O)[C@@H]2O)cc1	–	–	Ki [4]: 16 nM; Ki [5]: 71 nM
C[C@H](O)[C@H]1CC[C@H]2[C@@H]3CC=C4C[C@@H](O)CC[C@]4(C)[C@H]3CC[C@]12C	> 100000	–	–
C[C@H](CCCC(C)(C)O)[C@H]1CC[C@H]2[C@@H]3[C@H](O)C=C4C[C@@H](O)CC[C@]4(C)[C@H]3CC[C@]12C	92	78	–
C[C@H](CO)CCC[C@@H](C)[C@H]1CC[C@H]2[C@@H]3CC=C4C[C@@H](O)CC[C@]4(C)[C@H]3CC[C@]12C	> 870	–	–
CCCCCCCC[C@](C)(O)[C@H]1CC[C@H]2[C@@H]3CC=C4C[C@@H](O)CC[C@]4(C)[C@H]3CC[C@@]21C	> 20000	> 10000	–
CC(C)C[C@](C)(O)[C@H]1CC[C@H]2[C@@H]3CC=C4C[C@@H](O)CC[C@]4(C)[C@H]3CC[C@@]21C	> 30000	> 20000	–
CC[C@](C)(O)[C@H]1CC[C@H]2[C@@H]3CC=C4C[C@@H](O)CC[C@]4(C)[C@H]3CC[C@@]21C	> 30000	> 30000	–
CC1(C)C[C@H]2[C@@H]3CC=C4C[C@@H](OC5CCCCO5)CC[C@]4(C)[C@H]3CC[C@]2(C)[C@H]1O (stereo partly drawn)	–	–	Ki [4]: 22 nM; Ki [5]: 98 nM
C[C@]12CC[C@H](O)CC1=CC[C@@H]1[C@@H]2CC[C@]2(C)C([C@H](O)CO)=CC[C@@H]12	> 50000	> 50000	–
CC(C)CC[C@](C)(O)[C@H]1CC[C@H]2[C@@H]3CC=C4C[C@@H](O)CC[C@]4(C)[C@H]3CC[C@@]21C	> 2000	1300	–
CC(C)CCN[C@@H](C)[C@H]1CC[C@H]2[C@@H]3CC=C4C[C@@H](O)CC[C@]4(C)[C@H]3CC[C@]12C	> 100000	> 100000	–
CCCC[C@](C)(O)[C@H]1CC[C@H]2[C@@H]3CC=C4C[C@@H](O)CC[C@]4(C)[C@H]3CC[C@@]21C	> 30000	> 10000	–
CCCCC[C@](C)(O)[C@H]1CC[C@H]2[C@@H]3CC=C4C[C@@H](O)CC[C@]4(C)[C@H]3CC[C@@]21C	780	600	–
C[C@@H]1[C@@]2(CC[C@](C)(O)CO2)O[C@H]2C=C3[C@@H]4[C@@H](O)C[C@H]5Cc6nc7c(nc6C[C@]5(C)[C@H]4C[C@@H](O)[C@]3(C)[C@]21O)C[C@@H]1CC[C@H]2[C@H]3C[C@@H]4O[C@@]5(CCC(C)(C)O5)[C@@H](C)[C@@H]4[C@@]3(C)[C@H](O)C[C@@H]2[C@@]1(C)C7	–	–	Ki [4]: 28 nM; Ki [5]: > 360 nM
C[C@H](CCCC(C)(C)O)[C@H]1CC[C@H]2[C@@H]3CCC4C[C@@H](O)CC[C@]4(C)[C@H]3CC[C@]12C (stereo partly drawn)	51	–	–
CC(C)C[C@@](C)(O)[C@H]1CC[C@H]2[C@@H]3CC=C4C[C@@H](O)CC[C@]4(C)[C@H]3CC[C@@]21C	> 50000	> 50000	–
CCCCCCCC[C@@](C)(O)[C@H]1CC[C@H]2[C@@H]3CC=C4C[C@@H](O)CC[C@]4(C)[C@H]3CC[C@@]21C	> 100000	> 100000	–
CC(C)CC[C@@H](O)[C@](C)(O)[C@H]1CC[C@H]2[C@@H]3CC=C4C[C@@H](O)CC[C@]4(C)[C@H]3CC[C@]12C	> 15000	> 30000	–
CC(C)CC[C@@H](O)[C@@H](C)[C@H]1CC[C@H]2[C@@H]3CC=C4C[C@@H](O)CC[C@]4(C)[C@H]3CC[C@]12C [22(R)-HYDROXYCHOLESTEROL]	> 50000	–	–
C[C@@H]1[C@]2(O[C@H]3C=C4[C@@H]5CC[C@H]6Cc7nc8c(nc7C[C@]6(C)[C@H]5C[C@@H](O)[C@]4(C)[C@]31O)C[C@@H]1CC[C@H]3C4=CC[C@@H]5[C@H](C)[C@@]6(OC[C@]45C(=O)C[C@@H]3[C@@]1(C)C8)OC(C)(C)C[C@H]6O)O[C@](C)(CO)C[C@H]2O [CEPHALOSTATIN 1]	–	–	Ki ([4]; hek293t): 39 nM; Ki ([5]; hek293t): 78 nM
C[C@@H]1CC[C@@]2(OC1)O[C@H]1C[C@H]3[C@@H]4CC=C5C[C@@H](O)CC[C@]5(C)[C@H]4CC[C@]3(C)[C@H]1[C@@H]2C [DISOGENIN]	–	> 100000	–
CC(C)(O)[C@H]1O[C@H]2CC[C@@]3(C)[C@@](O)(CC[C@H]4Cc5c([nH]c6ccccc56)[C@@]43C)C2=CC1=O [PAXILLINE]	> 30000	> 50000	–
CC(C)=CCC/C(C)=C/Cc1c(O)cc(/C=C/c2cc(O)c3c(c2)C[C@@H]2C(C)(C)[C@H](O)[C@H](O)C[C@@]2(C)O3)cc1O [SCHWEINFURTHIN A]	–	–	Ki ([4]; hek293t): 68 nM; Ki ([5]; hek293t): 2600 nM
